Measurements reported in paper PMC12461739, “Multi-targeted azacoumarin–cyanocinnamate hybrids induce G2/M arrest and apoptosis via tubulin, and COX-2/VEGFR modulation: insights from in vitro mechanistic basis and in vivo validation” (RSC Medicinal Chemistry, 2025).
Where “and” joins values, the source holds several entries; their conditions need not be identical. Identical values can stand only once.

Experiments:
Bax = assay: qRT-PCR gene expression, Bax; assay type: cell-based, human; conditions: MCF-7, 7.653 μM, 24 h
Protocol: (§1) Untreated cells served as negative controls. RNA concentration and purity were verified spectrophotometrically prior to cDNA synthesis. Complementary DNA (cDNA) was synthesized from purified RNA using the RT^2 First Strand Kit (Qiagen, Valencia, CA, USA) following the supplied protocol. Quantitative real-time PCR (qRT-PCR) was performed on a Corbett Rotor-Gene 6000 system (Qiagen, USA) using the RT^2 SYBR® Green ROX™ FAST Master Mix (Qiagen). Each 25 μL reaction contained 12.5 μL of master mix, 1 μL of gene-specific primers (RT^2 qPCR Primer Assays, Qiagen), 1 μL of cDNA template, and 10.5 μL of RNase-free water. Gene-specific primers were selected using the PrimerBank database for BAX, BCL2, and TP53, along with GAPDH as the endogenous control (Table S3). Thermal cycling conditions were set as follows: initial enzyme activation at 95 °C for 10 minutes, followed by 40 cycles of denaturation at 95 °C for 15 seconds, and annealing at 60 °C for 30 seconds. Amplification specificity was confirmed by melting curve analysis. Gene expression levels were normalized to GAPDH mRNA as the internal reference, and relative quantification was performed using the ΔΔCt method. […] Statistical analysis was performed using GraphPad Prism software, with p < 0.05 considered statistically significant.[79]

Bcl-2 = assay: qRT-PCR gene expression, Bcl-2; assay type: cell-based, human; conditions: MCF-7, 7.653 μM, 24 h
Protocol: as §1

COX-1 = target: T1, COX-1 (Ovis aries, UniProt P05979); assay: COX-1 inhibitor screening (fluorometric); assay type: biochemical; conditions: read-out: IC50 toward COX-1
T1 construct: purchased BioVision K548-100
T1 sequence (P05979 25-600): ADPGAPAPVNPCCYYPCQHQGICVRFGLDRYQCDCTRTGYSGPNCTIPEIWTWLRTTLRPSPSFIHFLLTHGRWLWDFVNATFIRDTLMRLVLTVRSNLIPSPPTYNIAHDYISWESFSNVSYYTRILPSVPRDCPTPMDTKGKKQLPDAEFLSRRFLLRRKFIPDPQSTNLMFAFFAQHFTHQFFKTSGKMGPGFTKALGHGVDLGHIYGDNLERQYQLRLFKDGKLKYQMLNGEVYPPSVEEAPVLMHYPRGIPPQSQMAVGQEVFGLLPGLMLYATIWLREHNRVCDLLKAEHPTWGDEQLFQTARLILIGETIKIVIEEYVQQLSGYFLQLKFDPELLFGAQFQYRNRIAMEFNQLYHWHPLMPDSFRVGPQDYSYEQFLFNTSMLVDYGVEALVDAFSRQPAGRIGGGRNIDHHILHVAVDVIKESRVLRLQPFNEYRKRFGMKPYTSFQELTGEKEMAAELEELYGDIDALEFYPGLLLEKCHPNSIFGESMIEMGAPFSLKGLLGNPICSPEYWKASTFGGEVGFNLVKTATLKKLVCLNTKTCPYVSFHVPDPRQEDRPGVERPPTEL
Protocol: COX-1 and COX-2 enzymes were reconstituted in sterile water (110 μL) and kept on ice until use. Arachidonic acid was activated by mixing 5 μL with 5 μL of NaOH, followed by a 10-fold dilution with water and vortexing. A reaction mixture (80 μL per well) was prepared by combining 76 μL of assay buffer, 1 μL of COX probe, 2 μL of 200-fold diluted COX cofactor, and 1 μL of COX-1 or COX-2 enzyme. This mix was added to each well, followed by 10 μL of the prepared arachidonic acid/NaOH solution to initiate the reaction. Fluorescence was recorded at 25 °C using a microplate reader. The percent inhibition was determined by comparing the fluorescence increase in treated wells relative to the enzyme control. IC50 values were calculated from the concentration–response curves using GraphPad Prism.

[1] = Acute toxicity and lethal dose determination; assay type: in vivo, Swiss albino mice; conditions: mice, i.p., 48 hour observation
Protocol: In the first phase, animals were injected with low doses (1, 1.5, 2, 2.5, 3, 3.5, 4, 6, 8, and 10 mg kg^−1) and observed for 24 hours. Since no mortality was observed, a second set of animals was treated with higher doses (15, 25, 50, 75, 100, and 200 mg kg^−1), with continuous monitoring for 48 hours post-injection. Control animals received sterile saline solution only. All mice were carefully observed for signs of toxicity, behavioral changes (e.g., grooming, feeding, and locomotion), and mortality. The maximum tolerated dose (LD0) was defined as the highest dose at which no mortality or significant toxic symptoms were observed, while the lethal dose (LD100) was identified as the dose at which all animals succumbed. These values were used to establish safe dosing limits for subsequent in vivo pharmacological and biochemical experiments.

TNF-α = assay: Serum TNF-α ELISA
Protocol: (§2) All animals were maintained under conventional laboratory conditions, including a controlled temperature of 22 ± 2 °C and a 12 hour light/dark photoperiod, with continuous access to standard pellet chow and water. On day 11, following the final treatment, ascitic fluid was collected from the peritoneal cavity using heparinized syringes for EAC cell viability and count analysis. Blood samples were collected under light ether anesthesia via the retro-orbital venous plexus and centrifuged at 3000 rpm for 10 minutes. The resulting serum was separated and stored at −20 °C for biochemical analysis.
Briefly, 96-well microplates pre-coated with a TNF-α-specific capture antibody were loaded with standards and serum samples, followed by incubation to allow antigen binding. After washing, a biotin-labeled detection antibody was added, followed by an avidin–HRP conjugate to amplify the signal. The enzymatic reaction was developed using a TMB substrate and stopped with an acidic solution. Absorbance was measured at 450 nm using the ELISA microplate reader. TNF-α concentrations were calculated by plotting sample absorbance values against a standard curve and expressed in pg mL^−1. All measurements were performed in triplicate, and data were presented as mean ± SD.

VEGFR-II = assay: Serum VEGFR-II ELISA
Protocol: as §2
Serum VEGFR-2 levels were quantified using a rat VEGFR-2 ELISA kit (Cusabio®, China; Catalog No. CSB-E07348r), based on a quantitative sandwich enzyme immunoassay format. Samples were added to 96-well plates pre-coated with a monoclonal antibody specific for VEGFR-2 and incubated to enable antigen binding. After washing to remove unbound material, a biotin-conjugated detection antibody was added, followed by an avidin–HRP complex. The enzymatic reaction was developed using TMB substrate and stopped with an acidic solution. Absorbance was measured at 450 nm using a microplate reader. The VEGFR-2 concentrations in the samples were calculated using a standard curve fitted with a four-parameter logistic (4-PL) regression model and expressed in nanograms per milliliter (ng mL^−1).

[2] = Liver histopathology (H&E)
Excerpt: Additionally, liver and kidney tissues were excised from each animal for further evaluation. […] The second portion was fixed in 10% neutral buffered formalin for histopathological examination to assess tissue morphology and damage.[96,97]
Liver and kidney tissues were collected from all experimental groups at the end of the study and immediately fixed in 10% neutral buffered formalin. After fixation, the samples were dehydrated, embedded in paraffin, and sectioned at a thickness of 5 μm using a rotary microtome. […] Histopathological examination of renal tissue focused on identifying acute tubular injury (ATI), characterized by tubular epithelial cell flattening, necrosis, apical vacuolization, and loss of the brush border. These features were assessed using a semi-quantitative scoring system.[110] Hepatic tissue sections were evaluated for the severity of hepatocellular injury using a modified Brunt grading system, which includes assessment of hepatocyte ballooning, necrosis, inflammation, and other degenerative changes.

[3] = Hepatic oxidative stress markers (GSH, CAT, SOD, MDA)
Protocol: All animals were maintained under conventional laboratory conditions, including a controlled temperature of 22 ± 2 °C and a 12 hour light/dark photoperiod, with continuous access to standard pellet chow and water. On day 11, following the final treatment, ascitic fluid was collected from the peritoneal cavity using heparinized syringes for EAC cell viability and count analysis. Blood samples were collected under light ether anesthesia via the retro-orbital venous plexus and centrifuged at 3000 rpm for 10 minutes. The resulting serum was separated and stored at −20 °C for biochemical analysis. Additionally, liver and kidney tissues were excised from each animal for further evaluation. Each organ was divided into two parts: one portion was rinsed with ice-cold phosphate-buffered saline (PBS, pH 7.4) and stored at −20 °C for preparation of tissue homogenates used in biochemical assays. The second portion was fixed in 10% neutral buffered formalin for histopathological examination to assess tissue morphology and damage.[96,97]
Liver tissues were homogenized in an appropriate lysis buffer and centrifuged to obtain the supernatant. Samples were loaded into ELISA plates pre-coated with catalase-specific antibodies and incubated at 37 °C. After washing steps, a biotinylated detection antibody and horseradish peroxidase (HRP)-conjugated secondary antibody were sequentially added. The reaction was developed using a tetramethylbenzidine (TMB) substrate and stopped with sulfuric acid. Absorbance was measured at 450 nm using a microplate reader, and results were expressed as units per gram of tissue (U g^−1 tissue). All samples were run in triplicate, and data were reported as mean ± SD.
The assay employed a double-antibody sandwich ELISA technique, where wells are pre-coated with MDA-specific monoclonal antibodies. Liver tissue homogenate samples were added to the wells and incubated to allow specific antigen–antibody binding. After washing, a biotin-labeled polyclonal detection antibody was added, followed by an avidin–HRP conjugate. The enzymatic reaction was developed using a TMB substrate, yielding a colorimetric change proportional to the MDA concentration. The reaction was stopped with acid, and absorbance was measured at 450 nm using a microplate reader. Results were expressed as nanomole per gram of tissue (nmol g^−1 tissue). All measurements were performed in triplicate, and results are presented as mean ± SD.
The assay employs a sandwich ELISA technique in which GSH in the samples binds to monoclonal antibodies pre-coated on microplate wells. Following this, an HRP-conjugated detection antibody was added, and the plate was incubated at 37 °C for 1 hour. After several washing steps to remove unbound reagents, a TMB substrate solution was added, allowing the enzymatic colorimetric reaction to develop. The reaction was stopped with an acidic solution, and absorbance was measured at 450 nm using a microplate reader. The resulting color intensity was directly proportional to the GSH concentration in the sample, and results were expressed as picogram per gram of tissue (pg g^−1 tissue). All samples were assayed in triplicate, and results are reported as mean ± SD.
The assay employed a sandwich ELISA format, in which SOD present in the tissue homogenates binds to a specific monoclonal antibody pre-coated on microplate wells. After sample incubation at 37 °C for 60 minutes, an HRP-conjugated secondary antibody was added. Following thorough washing, the enzymatic reaction was initiated with a TMB substrate and stopped with an acidic solution, resulting in a measurable color change. Absorbance was recorded at 450 nm using a microplate reader, and results were expressed as units per gram of tissue (U g^−1 tissue). All samples were run in triplicate, and data were reported as mean ± SD.

[4] = test system: Ehrlich ascites carcinoma (EAC) cells; assay: EAC model: viable EAC cell count and ascitic tumor volume; conditions: for total viable EAC cell count: 10 days
Protocol: To evaluate tumor burden in the experimental groups, ascitic fluid was collected from the peritoneal cavity using a sterile, graduated syringe. The volume of ascitic fluid was recorded for each animal. The collected fluid was then diluted with heparinized saline for viable cell counting. Cell viability and density were determined using the trypan blue exclusion method. A 0.4% (w/v) trypan blue solution was prepared by dissolving 0.4 g of dye in 100 mL of sterile distilled water and filtering it through a 0.22 μm membrane filter. Prior to counting, 10 μL of the ascitic cell suspension was mixed with an equal volume of trypan blue and incubated at room temperature for 2 minutes. Cells were loaded onto a hemocytometer (Thoma type, Germany) and examined under a light microscope at 40× magnification. Non-viable cells stained blue, whereas viable cells remained unstained. All measurements were performed in triplicate, and the results are expressed as mean ± SD.[93]
On day 1, all groups were injected i.p. with 2.5 × 10^6 viable EAC cells in 200 μL of sterile saline. Group 1 (EAC control) received EAC cells only and no further treatment. […] The compound was administered i.p. every other day (i.e., on days 2, 4, 6, 8, and 10), for a total of five doses over a 10 day treatment period. At the end of the experiment (day 11), ascitic fluid was collected from the peritoneal cavity of each animal. The number and viability of EAC cells were assessed using the trypan blue exclusion assay. Each experiment was performed in triplicate and independently replicated on at least three separate occasions. The results were presented as mean ± SD. Statistical comparisons between groups were conducted using GraphPad Prism, with p < 0.05 considered significant.[95]
On day 11, following the final treatment, ascitic fluid was collected from the peritoneal cavity using heparinized syringes for EAC cell viability and count analysis.

Structure (SMILES): CCOC(=O)/C(C#N)=C/c1ccc(Oc2c(C)c3cc(Br)c(O)c(Br)c3[nH]c2=O)cc1 [Compound 7, ethyl (E)-2-cyano-3-(4-((6,8-dibromo-7-hydroxy-4-methyl-2-oxo-1,2-dihydroquinolin-3-yl)oxy)phenyl)acrylate]
- Bax expression relative to untreated control (Bax): 5.22 fold
- Bcl-2 expression relative to untreated control (Bcl-2): 0.312 fold
- IC50 (COX-1): 7.49 µM and 7.5 µM
- MTD at 48 h ([1]; Swiss albino, mouse, in vivo, ip, read-out: maximum tolerated dose (LD0)): 100 mg/kg
- approximate lethal dose (LD100) [1]: ~200 mg/kg
- serum TNF-α (TNF-α; EAC + compound 7 (10 mg kg^−1 i.p.), EAC control 156.80 ± 4.71): 56.42 ± 2.01 pg/mL
- serum TNF-α (TNF-α; compound 7-only control group, no EAC): 29.37 ± 1.33 pg/mL
- serum VEGFR-II (VEGFR-II; EAC + compound 7 (10 mg kg^−1 i.p.), EAC control 85.61 ± 2.47): 30.66 ± 1.31 ng/mL
- serum VEGFR-II (VEGFR-II; compound 7-only control group, no EAC, untreated 18.23 ± 0.81): 14.03 ± 0.45 ng/mL
- hepatocyte hydropic degeneration ([2]; EAC + compound 7, EAC group approximately 45%): around 15%
- portal inflammation grade ([2]; EAC + compound 7, EAC group grade 3): 2
- liver pathology score ([2]; EAC + compound 7, EAC group score 7, untreated 0): 3
- lobular inflammation grade ([2]; compound 7 only, no EAC): 1
- portal inflammation grade ([2]; compound 7 only, no EAC): 2
- liver pathology score ([2]; compound 7 only, no EAC, untreated 0): 4
- hepatic GSH ([3]; EAC + compound 7 (10 mg kg^−1 i.p.), EAC control 12.50 ± 0.55): 34.76 ± 1.71 pg g^−1 tissue
- hepatic SOD ([3]; EAC + compound 7, EAC control 9.85 ± 0.53): 27.04 ± 0.70 U g^−1 tissue
- hepatic CAT ([3]; EAC + compound 7, EAC control 11.71 ±1.42): 23.12 ± 1.09 U g^−1 tissue
- hepatic MDA ([3]; EAC + compound 7, EAC control 53.57 ± 9.6): 17.04 ± 0.64 nmol g^−1 tissue
- hepatic MDA ([3]; compound 7 control group, no EAC): 10.77 ± 0.70 nmol g^−1 tissue
- hepatic GSH ([3]; compound 7 control group, no EAC, untreated 61.4 ± 2.99): 72.73 ± 1.37 pg g^−1 tissue
- hepatic CAT ([3]; compound 7 control group, no EAC, untreated 65.23 ± 1.97): 60.88 ± 2.66 U g^−1 tissue
- hepatic SOD ([3]; compound 7 control group, no EAC, untreated 77.56 ± 4.02): 77.05 ± 1.84 U g^−1 tissue
- reduction in viable EAC cells ([4]; 2.5 mg kg^−1, vs EAC control): 53.27%
- total viable EAC cell count ([4]; 2.5 mg kg^−1 i.p. every two days, EAC control 199.33 ± 4.15): 93.15 ± 7.19 × 10^6 cells
- reduction in viable EAC cells ([4]; 5 mg kg^−1, vs EAC control): 65.41%
- total viable EAC cell count ([4]; 5 mg kg^−1 i.p. every two days): 68.95 ± 2.00 × 10^6 cells
- reduction in viable EAC cells ([4]; 7.5 mg kg^−1, vs EAC control): 72.36%
- total viable EAC cell count ([4]; 7.5 mg kg^−1 i.p. every two days): 55.10 ± 2.15 × 10^6 cells
- reduction in viable EAC cells ([4]; 10 mg kg^−1, vs EAC control): 85.92%
- reduction of ascitic tumor volume ([4]; 10 mg kg^−1, vs untreated EAC group): 45.25%
- average ascitic tumor volume ([4]; 10 mg kg^−1, untreated EAC group 5.68 ± 0.15 mL): 3.11 ± 0.45 mL
- total viable EAC cell count ([4]; 10 mg kg^−1 i.p. every two days): 28.06 ± 1.69 × 10^6 cells
- reduction in viable EAC cells ([4]; 15 mg kg^−1, vs EAC control): 85.96%
- total viable EAC cell count ([4]; 15 mg kg^−1 i.p. every two days): 27.98 ± 0.39 × 10^6 cells
